# Laboratory results published in ChEMBL document CHEMBL5126517, “Structure-Activity Relationship in the Leucettine Family of Kinase Inhibitors” (J Med Chem, 2022).
# pEC50, pIC50: −log10 of the molar value.
# Assays:
# U2OS = experiment: Induction of PI3K/mTor-dependent autophagy in human U2OS cells assessed as number of LC3 foci per cell at 10 uM measured after 4 hrs; assay type: cell-based; conditions: filed as activator
# [1] = target: Dual specificity protein kinase CLK3 (Mus musculus, UniProt O35492); experiment: Inhibition of GST-fused mouse recombinant CLK3 expressed in Escherichia coli using GRSRSRSRSRSR peptide as substrate incubated for 30 mins in presence of ATP by scintillation counting method
# [2] = target: T1, Dual specificity tyrosine-phosphorylation-regulated kinase 2 (Homo sapiens, UniProt Q92630); experiment: Inhibition of GST-fused human recombinant DYRK2 expressed in Escherichia coli using GRSRSRSRSRSR peptide as substrate incubated for 30 mins in presence of ATP by scintillation counting method
# T1 sequence (Q92630 whole entry): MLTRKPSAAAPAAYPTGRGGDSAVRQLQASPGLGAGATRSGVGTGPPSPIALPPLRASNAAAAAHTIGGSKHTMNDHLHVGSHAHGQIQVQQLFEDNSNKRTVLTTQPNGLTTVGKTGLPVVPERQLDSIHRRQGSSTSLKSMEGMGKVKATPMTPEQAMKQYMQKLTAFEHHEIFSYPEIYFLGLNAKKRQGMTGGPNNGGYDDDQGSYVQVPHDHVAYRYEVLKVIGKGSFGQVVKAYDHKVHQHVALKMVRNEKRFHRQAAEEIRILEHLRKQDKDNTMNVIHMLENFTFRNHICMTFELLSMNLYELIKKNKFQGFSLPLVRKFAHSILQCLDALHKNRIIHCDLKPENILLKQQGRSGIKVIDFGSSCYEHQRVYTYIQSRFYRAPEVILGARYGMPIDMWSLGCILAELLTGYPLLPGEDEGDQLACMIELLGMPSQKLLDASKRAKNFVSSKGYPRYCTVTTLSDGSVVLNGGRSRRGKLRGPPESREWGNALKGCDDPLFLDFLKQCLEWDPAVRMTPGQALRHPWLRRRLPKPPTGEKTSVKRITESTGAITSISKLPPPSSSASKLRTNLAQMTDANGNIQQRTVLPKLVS
# HT-22 [3] = experiment: Modulation of CLK1 pre-mRNA splicing in mouse HT-22 cells assessed as inclusion of CLK1 exon 4 by measuring change in threshold cycle at 10 uM measured after 4 hrs by real time PCR analysis; assay type: cell-based; conditions: filed as modulator
# Cannabinoid receptor 1 [4] = target: T2, Cannabinoid receptor 1 (Homo sapiens, UniProt P21554); experiment: Antagonist activity at CP-55940-activated CB1 receptor (unknown origin) by beta-arrestin assay; assay type: functional
# [5] = target: Dual specificity protein kinase CLK1 (Mus musculus, UniProt P22518); experiment: Inhibition of GST-fused mouse recombinant CLK1 expressed in Escherichia coli using GRSRSRSRSRSR peptide as substrate incubated for 30 mins in presence of ATP by scintillation counting method
# [6] = target: Glycogen synthase kinase-3 (Sus scrofa, UniProt B2LUN4+I6LNT8); experiment: Inhibition of porcine brain GSK-3alpha/beta using YRRAAVPPSPSLSRHSSPHQpSEDEEE as substrate incubated for 30 mins in presence of ATP by scintillation counting method; assay type: tissue-based
# [7] = Neurotoxicity against mouse HT-22 cells assessed as cell survival at 20 uM treated for 24 hrs by MTS assay; assay type: toxicity, cell-based; conditions: ht-22, 24 h
# [8] = target: T3, Dual specificity tyrosine-phosphorylation-regulated kinase 3 (Homo sapiens, UniProt O43781); experiment: Inhibition of GST-fused human recombinant DYRK3 expressed in Escherichia coli using GRSRSRSRSRSR peptide as substrate incubated for 30 mins in presence of ATP by scintillation counting method
# T3 sequence (O43781 whole entry): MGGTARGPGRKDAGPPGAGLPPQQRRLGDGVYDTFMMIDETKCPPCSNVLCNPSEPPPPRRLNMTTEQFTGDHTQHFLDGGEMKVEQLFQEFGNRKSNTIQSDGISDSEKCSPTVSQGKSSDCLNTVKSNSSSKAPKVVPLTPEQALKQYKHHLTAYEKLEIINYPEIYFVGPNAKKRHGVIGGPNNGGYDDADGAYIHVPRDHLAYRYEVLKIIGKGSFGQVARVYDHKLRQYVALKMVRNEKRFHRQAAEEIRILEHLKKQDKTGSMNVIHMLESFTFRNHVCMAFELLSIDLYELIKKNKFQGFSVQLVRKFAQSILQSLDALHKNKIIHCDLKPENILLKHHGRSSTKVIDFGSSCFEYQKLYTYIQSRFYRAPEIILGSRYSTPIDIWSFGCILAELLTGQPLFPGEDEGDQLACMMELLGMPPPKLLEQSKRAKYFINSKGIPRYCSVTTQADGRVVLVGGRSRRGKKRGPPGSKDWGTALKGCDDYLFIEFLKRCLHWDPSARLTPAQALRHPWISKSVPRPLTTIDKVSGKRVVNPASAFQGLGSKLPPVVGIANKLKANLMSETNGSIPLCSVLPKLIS
# [9] = target: Dual specificity protein kinase CLK2 (Mus musculus, UniProt O35491); experiment: Inhibition of mouse recombinant GST-fused CLK2 expressed in Escherichia coli using GRSRSRSRSRSR peptide as substrate incubated for 30 mins in presence of ATP by scintillation counting method
# Cannabinoid receptor 1 [10] = target: T2, Cannabinoid receptor 1; experiment: Antagonist activity at CP-55940-activated CB1 receptor (unknown origin) at 10 uM by beta-arrestin assay relative to control; assay type: functional; parameters: scale not given: the % may be the effect or the level left
# [11] = target: Serine/threonine-protein kinase pim-1 (Homo sapiens, UniProt P11309); experiment: Inhibition of human recombinant Pim1 expressed in Escherichia coli using histone H1 as substrate incubated for 30 mins in presence of ATP by scintillation counting method
# Casein kinase 2 = Casein kinase 2 (Homo sapiens, UniProt P67870+P68400+P19784+Q8NEV1); experiment: Inhibition of human recombinant CK2 using RRRDDDSDDD peptide as substrate incubated for 30 mins in presence of ATP by scintillation counting method; assay type: protein assay
# [12] = Neurotoxicity against mouse HT-22 cells assessed as cell survival treated for 24 hrs by MTS assay; assay type: toxicity, cell-based
# [13] = target: Dual specificity protein kinase CLK4 (Mus musculus, UniProt O35493); experiment: Inhibition of GST-fused mouse recombinant CLK4 expressed in Escherichia coli using GRSRSRSRSRSR peptide as substrate incubated for 30 mins in presence of ATP by scintillation counting method
# [14] = target: T4, Dual specificity tyrosine-phosphorylation-regulated kinase 1A (Homo sapiens, UniProt Q13627); experiment: Inhibition of GST-fused human recombinant DYRK1A expressed in Escherichia coli using GRSRSRSRSRSR peptide as substrate incubated for 30 mins in presence of ATP by scintillation counting method
# [15] = target: Dual specificity tyrosine-phosphorylation-regulated kinase 1B (Homo sapiens, UniProt Q9Y463)
# [16] = target: T4, Dual specificity tyrosine-phosphorylation-regulated kinase 1A; experiment: Inhibition of DYRK1A in human SH-SY5Y overexpressing Tau4R cells assessed as phosphorylated Tau Thr212 residue level at 10 uM incubated for 6 hrs by western blot analysis relative to control; assay type: cell-based
# HT-22 [17] = experiment: Neuroprotective activity against glutamate-induced cell death in mouse HT-22 cells treated for 24 hrs by MTS assay; assay type: functional, cell-based; conditions: HT-22, 24 h
# Chain of Dual specificity tyrosine-phosphorylation-regulated kinase 1B (Q9Y463 whole entry): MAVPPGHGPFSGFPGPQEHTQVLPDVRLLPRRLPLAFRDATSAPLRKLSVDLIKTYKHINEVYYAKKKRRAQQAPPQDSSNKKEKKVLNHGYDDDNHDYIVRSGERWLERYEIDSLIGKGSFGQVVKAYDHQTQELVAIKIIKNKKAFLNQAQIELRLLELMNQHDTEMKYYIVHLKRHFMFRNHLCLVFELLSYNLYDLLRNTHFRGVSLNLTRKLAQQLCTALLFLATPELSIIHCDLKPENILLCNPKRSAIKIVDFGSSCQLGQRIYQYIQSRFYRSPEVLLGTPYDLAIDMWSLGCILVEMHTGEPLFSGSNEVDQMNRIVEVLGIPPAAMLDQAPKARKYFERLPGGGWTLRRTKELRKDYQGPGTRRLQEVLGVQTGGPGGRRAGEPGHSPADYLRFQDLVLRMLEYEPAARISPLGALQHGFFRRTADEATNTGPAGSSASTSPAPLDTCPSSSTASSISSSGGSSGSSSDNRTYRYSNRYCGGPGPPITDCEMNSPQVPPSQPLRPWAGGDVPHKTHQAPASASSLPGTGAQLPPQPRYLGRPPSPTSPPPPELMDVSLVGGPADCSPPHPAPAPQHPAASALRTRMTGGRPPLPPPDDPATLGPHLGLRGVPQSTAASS
# Chain of Dual specificity protein kinase CLK3 (O35492 whole entry, the tested form may be a part): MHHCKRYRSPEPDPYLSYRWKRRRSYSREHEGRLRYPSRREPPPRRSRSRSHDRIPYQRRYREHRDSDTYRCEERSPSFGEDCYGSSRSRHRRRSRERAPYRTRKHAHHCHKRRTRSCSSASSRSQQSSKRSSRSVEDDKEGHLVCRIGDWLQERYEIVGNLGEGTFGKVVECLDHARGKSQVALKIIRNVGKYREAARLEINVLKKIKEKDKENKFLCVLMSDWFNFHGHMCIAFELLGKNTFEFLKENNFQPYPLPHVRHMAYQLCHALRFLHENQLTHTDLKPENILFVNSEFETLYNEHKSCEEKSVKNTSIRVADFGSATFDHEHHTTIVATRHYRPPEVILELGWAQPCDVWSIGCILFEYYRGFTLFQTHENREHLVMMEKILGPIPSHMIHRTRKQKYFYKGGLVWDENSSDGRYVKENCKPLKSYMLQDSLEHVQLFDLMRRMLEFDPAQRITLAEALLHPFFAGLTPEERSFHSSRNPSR
# Chain of Dual specificity protein kinase CLK1 (P22518 whole entry, the tested form may be a part): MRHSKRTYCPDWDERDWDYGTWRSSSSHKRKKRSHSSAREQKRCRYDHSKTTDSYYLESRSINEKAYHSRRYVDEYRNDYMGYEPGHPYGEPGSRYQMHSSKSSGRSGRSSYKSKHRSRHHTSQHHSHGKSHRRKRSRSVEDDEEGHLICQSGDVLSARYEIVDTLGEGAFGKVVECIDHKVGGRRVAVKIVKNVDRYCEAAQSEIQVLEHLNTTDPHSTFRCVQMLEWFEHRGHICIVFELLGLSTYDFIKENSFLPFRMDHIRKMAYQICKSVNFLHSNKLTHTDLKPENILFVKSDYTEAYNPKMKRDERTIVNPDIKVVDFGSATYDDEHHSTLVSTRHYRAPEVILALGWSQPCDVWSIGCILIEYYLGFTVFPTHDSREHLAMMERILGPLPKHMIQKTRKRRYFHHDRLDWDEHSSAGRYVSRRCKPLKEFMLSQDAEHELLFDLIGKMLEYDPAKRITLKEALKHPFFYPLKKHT
# Chain of Dual specificity protein kinase CLK2 (O35491 whole entry, the tested form may be a part): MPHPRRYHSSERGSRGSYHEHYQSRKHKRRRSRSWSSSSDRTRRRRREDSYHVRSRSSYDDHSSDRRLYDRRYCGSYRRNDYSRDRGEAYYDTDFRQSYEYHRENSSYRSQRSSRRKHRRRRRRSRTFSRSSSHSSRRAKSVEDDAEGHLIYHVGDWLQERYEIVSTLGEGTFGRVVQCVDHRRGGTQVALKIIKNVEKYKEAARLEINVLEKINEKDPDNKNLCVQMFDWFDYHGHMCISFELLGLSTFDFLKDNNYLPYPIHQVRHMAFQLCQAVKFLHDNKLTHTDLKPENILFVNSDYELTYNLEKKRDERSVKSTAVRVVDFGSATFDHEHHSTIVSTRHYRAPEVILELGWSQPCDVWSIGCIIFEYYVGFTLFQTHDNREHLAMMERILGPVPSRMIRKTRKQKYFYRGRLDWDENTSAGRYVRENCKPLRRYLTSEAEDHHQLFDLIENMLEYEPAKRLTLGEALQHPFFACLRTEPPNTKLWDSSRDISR
# Chain of Dual specificity protein kinase CLK4 (O35493 whole entry, the tested form may be a part): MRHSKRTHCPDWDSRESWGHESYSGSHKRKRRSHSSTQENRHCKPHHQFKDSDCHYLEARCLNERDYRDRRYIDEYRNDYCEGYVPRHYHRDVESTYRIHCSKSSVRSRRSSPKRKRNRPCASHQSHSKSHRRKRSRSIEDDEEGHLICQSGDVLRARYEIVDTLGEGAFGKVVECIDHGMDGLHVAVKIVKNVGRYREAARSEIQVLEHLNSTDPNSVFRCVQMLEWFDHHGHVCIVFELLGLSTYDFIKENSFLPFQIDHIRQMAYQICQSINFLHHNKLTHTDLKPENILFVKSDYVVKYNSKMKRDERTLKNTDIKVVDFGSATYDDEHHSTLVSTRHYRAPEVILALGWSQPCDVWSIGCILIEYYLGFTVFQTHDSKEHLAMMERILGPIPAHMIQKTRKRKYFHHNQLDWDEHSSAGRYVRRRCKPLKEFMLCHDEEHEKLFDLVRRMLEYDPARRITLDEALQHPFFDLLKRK
# Chain of Serine/threonine-protein kinase pim-1 (P11309 whole entry): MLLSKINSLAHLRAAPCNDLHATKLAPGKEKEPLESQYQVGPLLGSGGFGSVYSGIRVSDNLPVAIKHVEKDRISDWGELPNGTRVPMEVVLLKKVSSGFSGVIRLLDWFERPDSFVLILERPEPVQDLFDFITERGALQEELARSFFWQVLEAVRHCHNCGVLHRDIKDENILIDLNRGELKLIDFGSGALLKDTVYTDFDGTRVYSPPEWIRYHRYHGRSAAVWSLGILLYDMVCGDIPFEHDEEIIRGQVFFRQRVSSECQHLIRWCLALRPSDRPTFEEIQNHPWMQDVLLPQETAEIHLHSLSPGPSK
# T2 sequence (P21554 whole entry, the tested form may be a part): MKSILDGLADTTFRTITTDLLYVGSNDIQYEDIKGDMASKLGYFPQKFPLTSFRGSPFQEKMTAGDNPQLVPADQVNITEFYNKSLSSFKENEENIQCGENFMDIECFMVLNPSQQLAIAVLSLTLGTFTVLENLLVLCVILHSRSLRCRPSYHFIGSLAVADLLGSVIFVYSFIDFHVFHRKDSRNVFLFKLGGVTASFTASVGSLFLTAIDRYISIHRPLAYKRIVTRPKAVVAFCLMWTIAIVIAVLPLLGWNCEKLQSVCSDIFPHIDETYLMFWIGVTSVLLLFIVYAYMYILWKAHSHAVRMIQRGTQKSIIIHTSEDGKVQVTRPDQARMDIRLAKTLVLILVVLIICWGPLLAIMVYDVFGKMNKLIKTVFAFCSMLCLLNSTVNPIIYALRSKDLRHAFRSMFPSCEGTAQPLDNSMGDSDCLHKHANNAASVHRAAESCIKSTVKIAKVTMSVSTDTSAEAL
SMILES,Activity (U2OS),pIC50 [1],pIC50 [2],deltaCT (HT-22 [3]),pIC50 (Cannabinoid receptor 1 [4]),pIC50 [5],IC50 [6] [nM],Activity [7],pIC50 [8],pIC50 [9],Activity (Cannabinoid receptor 1 [10]) [%],pIC50 [11],IC50 (Casein kinase 2) [nM],EC50 at 24 h [12] [nM],pIC50 [13],pIC50 [14],pIC50 [15],inhibition [16] [%],pEC50 (HT-22 [17])
CN1C(=O)/C(=C/c2ccc3c(c2)OCO3)N=C1N [LEUCETTAMINE B],4.3,5.22,6.37,1.14,< 5.00,6.85,5000,Non-Toxic,5.89,6.03,9.5,< 5.00,,,,,,,
CCSC1=N/C(=C\c2ccc3c(c2)OCO3)C(=O)N1,5.5,5.85,7.49,0.57,,7.54,900,Non-Toxic,6.80,6.92,-7.5,6.47,600,> 20000,7.64,7.48,7.14,,
CCCNC1=N/C(=C\c2ccc3c(c2)OCO3)C(=O)N1,5.1,5.52,7.00,5.11,,7.15,4100,,6.19,6.26,-14.8,5.92,1400,> 20000,7.21,6.92,6.51,,
CCCSC1=N/C(=C\c2ccc3c(c2)OCO3)C(=O)N1,7.3,5.51,7.43,2.48,,7.47,1400,Non-Toxic,6.29,6.96,-2.6,6.02,1700,> 20000,7.57,7.40,7.05,-2.4,
O=C1NC(Nc2ccc(O)cc2)=N/C1=C\c1ccc2c(c1)OCO2,12,6.55,7.96,7.91,,7.66,530,,6.85,7.08,-25.5,5.96,140,> 20000,7.74,7.89,7.62,,5.05
NC1=N/C(=C\c2ccc3c(c2)OCO3)C(=O)N1,5,6.02,7.49,3.02,,7.39,2100,,6.62,6.74,-2.2,6.49,930,> 20000,7.43,7.46,6.72,,
CCCNC1=N/C(=C\c2ccc3c(c2)OCO3)C(=O)N1CCC,5,< 5.00,< 5.00,-0.32,,5.52,> 10000,Non-Toxic,< 5.00,≤ 5.00,-13.4,,,,5.64,< 5.00,< 5.00,-1.5,
